Data on nine molecules can be found in patent publication US8614223B2, “Pyrimidine hydroxy amide compounds as protein deacetylase inhibitors and methods of use thereof” (Acetylon Pharmaceuticals, Inc., priority 2010, dated 2013).

One assay addresses HDAC6 (Homo sapiens (Human), UniProt Q9UBN7). As to conditions: read-out: HDAC6 IC50.
The target in another assay is HDAC1 (Homo sapiens (Human), UniProt Q13547). The assay can be described thus: HDAC enzyme assay, HDAC1. The conditions noted are these: for HDAC1 fold over HDAC6 IC50 (selectivity for HDAC6): ratio HDAC1/HDAC6; for IC50: read-out: HDAC1 IC50.
Chain of HDAC1 (Q13547 whole entry): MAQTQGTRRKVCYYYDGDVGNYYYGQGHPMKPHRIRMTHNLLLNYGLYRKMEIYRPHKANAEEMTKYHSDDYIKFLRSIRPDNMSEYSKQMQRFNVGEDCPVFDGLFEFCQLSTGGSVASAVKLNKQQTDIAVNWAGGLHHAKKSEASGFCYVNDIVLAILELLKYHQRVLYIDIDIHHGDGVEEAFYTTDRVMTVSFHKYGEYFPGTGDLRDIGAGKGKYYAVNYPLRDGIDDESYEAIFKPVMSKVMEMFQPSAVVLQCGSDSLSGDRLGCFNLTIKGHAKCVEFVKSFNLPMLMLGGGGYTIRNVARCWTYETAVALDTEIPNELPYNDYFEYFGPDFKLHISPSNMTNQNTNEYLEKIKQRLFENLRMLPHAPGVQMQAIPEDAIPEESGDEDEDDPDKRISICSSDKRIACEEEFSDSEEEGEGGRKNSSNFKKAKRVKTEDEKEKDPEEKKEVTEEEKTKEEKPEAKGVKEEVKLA
The next assay concerns the target HDAC2 (Homo sapiens (Human), UniProt Q92769). In words: HDAC enzyme assay, HDAC2. As to conditions: for HDAC2 fold over HDAC6 IC50 (selectivity for HDAC6): ratio HDAC2/HDAC6; for IC50: read-out: HDAC2 IC50.
In the next assay the target is HDAC3 (Homo sapiens (Human), UniProt O15379). The assay can be described thus: HDAC enzyme assay, HDAC3. As to conditions: for HDAC3 fold over HDAC6 IC50 (selectivity for HDAC6): ratio HDAC3/HDAC6; for IC50: read-out: HDAC3 IC50.
Chain of HDAC3 (O15379 whole entry): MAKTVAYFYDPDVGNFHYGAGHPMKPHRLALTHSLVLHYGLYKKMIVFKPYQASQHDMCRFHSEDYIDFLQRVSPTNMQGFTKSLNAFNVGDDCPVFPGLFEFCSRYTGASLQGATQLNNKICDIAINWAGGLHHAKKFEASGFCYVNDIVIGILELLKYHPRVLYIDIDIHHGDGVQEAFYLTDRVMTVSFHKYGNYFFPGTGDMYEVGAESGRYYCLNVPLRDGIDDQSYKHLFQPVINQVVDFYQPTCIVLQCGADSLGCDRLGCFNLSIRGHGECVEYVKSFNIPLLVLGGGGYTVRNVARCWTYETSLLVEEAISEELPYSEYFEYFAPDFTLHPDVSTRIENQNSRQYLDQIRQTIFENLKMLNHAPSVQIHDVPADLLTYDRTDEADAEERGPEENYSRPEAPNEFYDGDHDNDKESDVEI
Chain of HDAC3 (Q9Y618 395-489 partner): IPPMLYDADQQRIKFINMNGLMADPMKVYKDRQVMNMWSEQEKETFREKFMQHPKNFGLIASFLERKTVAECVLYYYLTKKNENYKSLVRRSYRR

Chain of HDAC6 (Q9UBN7 whole entry): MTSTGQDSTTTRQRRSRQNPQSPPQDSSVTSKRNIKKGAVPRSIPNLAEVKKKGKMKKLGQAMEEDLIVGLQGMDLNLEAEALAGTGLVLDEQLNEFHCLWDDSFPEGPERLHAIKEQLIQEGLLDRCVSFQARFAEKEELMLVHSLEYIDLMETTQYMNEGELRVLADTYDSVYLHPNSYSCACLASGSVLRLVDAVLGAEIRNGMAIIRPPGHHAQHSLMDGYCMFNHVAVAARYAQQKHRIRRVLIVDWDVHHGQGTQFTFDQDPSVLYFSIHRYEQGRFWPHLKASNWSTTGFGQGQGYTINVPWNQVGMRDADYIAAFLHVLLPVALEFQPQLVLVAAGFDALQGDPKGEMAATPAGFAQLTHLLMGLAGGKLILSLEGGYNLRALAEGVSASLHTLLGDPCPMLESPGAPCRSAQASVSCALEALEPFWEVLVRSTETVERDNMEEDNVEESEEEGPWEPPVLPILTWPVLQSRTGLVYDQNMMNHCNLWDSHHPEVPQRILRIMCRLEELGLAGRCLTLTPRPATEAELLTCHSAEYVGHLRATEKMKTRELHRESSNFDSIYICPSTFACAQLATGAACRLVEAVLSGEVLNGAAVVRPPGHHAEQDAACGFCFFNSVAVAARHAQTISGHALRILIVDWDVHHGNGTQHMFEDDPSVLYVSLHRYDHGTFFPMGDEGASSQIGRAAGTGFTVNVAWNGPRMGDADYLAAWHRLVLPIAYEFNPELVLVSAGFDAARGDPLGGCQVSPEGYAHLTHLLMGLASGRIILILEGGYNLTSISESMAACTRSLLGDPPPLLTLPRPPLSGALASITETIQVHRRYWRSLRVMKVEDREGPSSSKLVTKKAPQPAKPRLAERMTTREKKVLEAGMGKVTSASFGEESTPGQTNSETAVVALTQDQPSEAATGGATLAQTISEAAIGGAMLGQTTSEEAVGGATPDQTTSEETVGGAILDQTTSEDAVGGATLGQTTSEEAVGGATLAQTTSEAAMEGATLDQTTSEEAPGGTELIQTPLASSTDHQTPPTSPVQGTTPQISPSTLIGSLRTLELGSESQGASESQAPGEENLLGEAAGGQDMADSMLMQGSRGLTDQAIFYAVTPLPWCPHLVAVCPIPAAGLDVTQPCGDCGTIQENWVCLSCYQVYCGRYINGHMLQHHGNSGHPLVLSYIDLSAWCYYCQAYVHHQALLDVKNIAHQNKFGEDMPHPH
Chain of HDAC2 (Q92769 whole entry): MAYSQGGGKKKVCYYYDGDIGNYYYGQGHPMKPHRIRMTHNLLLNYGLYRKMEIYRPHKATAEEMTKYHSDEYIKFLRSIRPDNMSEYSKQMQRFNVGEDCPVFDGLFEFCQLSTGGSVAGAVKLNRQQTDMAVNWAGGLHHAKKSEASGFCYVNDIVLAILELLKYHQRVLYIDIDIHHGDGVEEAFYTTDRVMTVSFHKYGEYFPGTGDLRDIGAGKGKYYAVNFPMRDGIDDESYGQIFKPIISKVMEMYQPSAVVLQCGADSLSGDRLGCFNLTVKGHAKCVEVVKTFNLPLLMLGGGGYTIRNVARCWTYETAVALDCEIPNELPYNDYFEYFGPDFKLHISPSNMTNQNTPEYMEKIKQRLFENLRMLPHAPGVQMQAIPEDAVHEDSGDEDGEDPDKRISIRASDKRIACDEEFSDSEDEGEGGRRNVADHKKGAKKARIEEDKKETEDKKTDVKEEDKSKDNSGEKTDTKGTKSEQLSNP

Consider `O=C(NO)c1cnc(NC(c2ccccc2)c2ccccc2)nc1` [Compound 60], for which the IC50 was 0.002 µM at HDAC6, 0.129 µM at HDAC1, 0.142 µM on HDAC2 and 0.237 µM at HDAC3. The “HDAC1 fold over HDAC6 IC50 (selectivity for HDAC6)” value at HDAC1 was “(53.5x)”. In addition, at HDAC2, the “HDAC2 fold over HDAC6 IC50 (selectivity for HDAC6)” value was “(58.9x)”. The “HDAC3 fold over HDAC6 IC50 (selectivity for HDAC6)” value at HDAC3 is “(98.1x)”.
As for `O=C(NO)c1cnc(NCCc2c(Cl)cccc2Cl)nc1` [Compound 63], the IC50 at HDAC6 amounted to 0.019 µM. At HDAC1, the “HDAC1 fold over HDAC6 IC50 (selectivity for HDAC6)” value is “(77.6x)” and the IC50 came to 1.45 µM. In addition, on HDAC2, the “HDAC2 fold over HDAC6 IC50 (selectivity for HDAC6)” value is given as “(96.5x)” and the IC50 was determined as 1.8 µM. In addition, on HDAC3, the “HDAC3 fold over HDAC6 IC50 (selectivity for HDAC6)” value was “(93.7x)” and the IC50 worked out at 1.75 µM.
Take `CC(C)(Nc1ncc(C(=O)NO)cn1)c1ccc(F)cc1` [Compound 68]: on HDAC6, the IC50 amounted to 0.003 µM. On HDAC1, the “HDAC1 fold over HDAC6 IC50 (selectivity for HDAC6)” value is “(254.8x)” and the IC50 is 0.761 µM. Besides, on HDAC2, the “HDAC2 fold over HDAC6 IC50 (selectivity for HDAC6)” value is “(362.4x)” and the IC50 worked out at 1.08 µM. At HDAC3, the “HDAC3 fold over HDAC6 IC50 (selectivity for HDAC6)” value is recorded as “(495.3x)” and the IC50 stood at 1.48 µM.
`CC(C)(Nc1ncc(C(=O)NO)cn1)c1ccc(F)cc1F` [Compound 70]: the IC50 came to 0.003 µM on HDAC6, 0.645 µM on HDAC1, 0.972 µM on HDAC2 and 1.31 µM on HDAC3. In addition, the “HDAC1 fold over HDAC6 IC50 (selectivity for HDAC6)” value at HDAC1 is listed as “(217.2x)”. In addition, the “HDAC2 fold over HDAC6 IC50 (selectivity for HDAC6)” value at HDAC2 is on record as “(327.2x)”. Also, the “HDAC3 fold over HDAC6 IC50 (selectivity for HDAC6)” value on HDAC3 is reported as “(441.9x)”.
In the case of `Cc1cc(F)ccc1C(C)(C)Nc1ncc(C(=O)NO)cn1` [Compound 72], the IC50 on HDAC6 was determined as 0.019 µM. For the same molecule, at HDAC1, the “HDAC1 fold over HDAC6 IC50 (selectivity for HDAC6)” value is “(306.9x)” and the concentration for half-maximal inhibition (IC50) was determined as 5.75 µM. In addition, on HDAC2, the “HDAC2 fold over HDAC6 IC50 (selectivity for HDAC6)” value is “(427.2x)” and the IC50 stood at 8.01 µM. Besides, at HDAC3, the “HDAC3 fold over HDAC6 IC50 (selectivity for HDAC6)” value is on record as “(656.2x)” and the IC50 came out at 12.3 µM.
On to `CC(C)(Nc1ncc(C(=O)NO)cn1)c1ccc(C(F)(F)F)cc1` [Compound 74], for which the IC50 at HDAC6 was determined as 0.006 µM. Further, at HDAC1, the “HDAC1 fold over HDAC6 IC50 (selectivity for HDAC6)” value was “(147.5x)” and the IC50 stood at 0.889 µM. On HDAC2, the “HDAC2 fold over HDAC6 IC50 (selectivity for HDAC6)” value was “(168.4x)” and the IC50 was determined as 1.02 µM. Further, on HDAC3, the “HDAC3 fold over HDAC6 IC50 (selectivity for HDAC6)” value is given as “(394.2x)” and the IC50 is 2.38 µM.
With `CC(C)(Nc1ncc(C(=O)NO)cn1)c1cccc(F)c1` [Compound 75], on HDAC6, the IC50 was determined as 0.003 µM. Besides, at HDAC1, the “HDAC1 fold over HDAC6 IC50 (selectivity for HDAC6)” value is given as “(374.2x)” and the IC50 came out at 1.14 µM. In addition, on HDAC2, the “HDAC2 fold over HDAC6 IC50 (selectivity for HDAC6)” value is on record as “(316.3x)” and the IC50 was determined as 0.966 µM. On HDAC3, the “HDAC3 fold over HDAC6 IC50 (selectivity for HDAC6)” value is listed as “(616.6x)” and the IC50 was found to be 1.88 µM.
Consider `CC(C)(Nc1ncc(C(=O)NO)cn1)c1ccc(F)c(F)c1` [Compound 76], for which the IC50 on HDAC6 is 0.004 µM; at HDAC1 it was 0.624 µM; at HDAC2, 0.609 µM; on HDAC3, 1.06 µM. Further, the “HDAC1 fold over HDAC6 IC50 (selectivity for HDAC6)” value on HDAC1 is “(153.3x)”. Also, at HDAC2, the “HDAC2 fold over HDAC6 IC50 (selectivity for HDAC6)” value was “(149.7x)”. At HDAC3, the “HDAC3 fold over HDAC6 IC50 (selectivity for HDAC6)” value was “(260x)”.
On to `O=C(NO)c1cnc(NCc2cnccn2)nc1` [Compound 77], for which the IC50 turned out to be 0.004 µM on HDAC6, 0.328 µM on HDAC1, 0.34 µM on HDAC2 and 0.434 µM on HDAC3. Further, the “HDAC1 fold over HDAC6 IC50 (selectivity for HDAC6)” value at HDAC1 is listed as “(74x)”. Moreover, at HDAC2, the “HDAC2 fold over HDAC6 IC50 (selectivity for HDAC6)” value is recorded as “(76.9x)”. Moreover, the “HDAC3 fold over HDAC6 IC50 (selectivity for HDAC6)” value at HDAC3 is reported as “(98.1x)”.
